Data taken from patent US20240058265A1, “TREATMENT OF OCULAR DISEASES USING ENDOTHELIN RECEPTOR ANTAGONISTS” (Perfuse Therapeutics, Inc., priority 2021, published 2024).
Values joined by “and” are separate entries in the source; they are usually repeats but may differ in a detail not shown here. Equal values may be shown once. Read-outs that look alike come from different tables or passages of the source.

Experiments:
elevated IOP rat eye = assay: Morrison's rat model of glaucoma (RGC counts, PERG); assay type: in vivo, Brown Norway rats; details: topical eye drops 100 μg per dose, five days a week, four weeks
Description: Adult male and female retired breeder Brown Norway rats (approximate age groups of 8 to 11 months) were obtained from Envigo (Indianapolis, IN). Baseline IOP measurements and pattern electroretinogram (PERG) amplitudes were collected prior to the surgery for elevation of IOP (to ensure that the IOP and PERG amplitudes were in the expected range of values). IOP was elevated in one eye (left eye) of the rats, while the corresponding right eyes served as contralateral controls. The Morrison method to elevate IOP in rats was carried out by injection of 50 μL of hypertonic saline through the episcleral veins to sclerose the trabecular meshwork. IOP was measured twice a week throughout the entire duration of the experiment. […] After detecting an elevation of IOP for two consecutive days, topical administration of eye drops ([…] (100 μg,) per dose of the tested compounds in the IOP elevated eye) was commenced and carried out for five days a week for a total of four weeks. In the 4th week of treatment, PERG analysis was carried out and rats were sacrificed by an overdose of pentobarbital (fatal-Plus). Aqueous humor was collected from the rat eyes, frozen and shipped for analysis. Retinal flat mounts were prepared, immunostained with the RGC marker, Brn3a antibody and surviving RG-Cs were counted in two eccentricities (central and peripheral).
For this study, the Morrison's model was used to induce ocular hypertension in adult male retired breeder Brown Norway rats as previously described by. Morrison et al., (Morrison J C, Moore C G, Deppmeier L M, Gold B G, Meshul C K, Johnson E C. A rat model of chronic pressure-induced optic nerve damage. Exp Eye Res. 1997;64(1):85-96).
The immunostained retinal flat mounts were obtained to measure the retinal ganglion cell (RGC) counts. To obtain immunostained retinal flat mounts, the animals were euthanized after the treatments and then their eyes were enucleated. The eye cups were fixed overnight at 4° C. in 4% paraformaldehyde (PFA) and retinal flat mounts were prepared for collecting images. The retinal ganglion cell (RGC) counting was conducted using the images of immunostained retinal flat mounts. The images were uploaded to ImageJ, a photo editor designed for biology research (Rasband, 1997-2018) and the labeled retinal ganglion cells were counted manually in two eccentricities (central and peripheral).
Pattern ERG (PERG) was used to assess the RGC function. […] Briefly, PERG signals were acquired from a DTL-plus electrode placed on the lower part of the corneal surface and the PERG waves were analyzed using the EMWIN software (LKC). The difference between the amplitude of the major positive (P1) and negative (N2) waves were calculated to decipher the PERG amplitude.

Permeability (PAMPA) = assay type: in vitro ADME
Description: (§1) In the above table, the physicochemical data, e.g., solubility, were obtained following standard protocols known in the field (see, e.g., Reis et al., Mini Rev Med Chem., 2010, 10(11):1071-6; Avdeef et al., Expert Opin Drug Metab Toxicol., 2005, 1(2):325-42; Bharate et al., Comb Chem High Throughput Screen., 2016, 19(6):461-9; and Jain et al., J Pharm Biomed Anal., 2013, 86:11-35.); and the biochemical data, i.e., potency for ETA/ETB, were obtained following the protocols known in the field (see, e.g., Kirkby et al., Br J Pharmacol., 2008, 153(6):1105-19; and Maguire et al., Br J Pharmacol., 2014, 171(24):5555-72.).

[1] = Solubility (pH 2, pH 7, ethyl acetate); assay type: physicochemical
Description: as §1

[2] = system: laser-induced glaucoma eye; assay: Laser-induced glaucoma non-human primate, intraocular pressure after topical administration; assay type: in vivo, rhesus macaque, Macaca Mulatta; details: 50 μL eyedrop 2 mg/mL
Method: Non-human primates (rhesus macaque, Macaca Mulatta) were obtained for this study. One eye of each animal underwent induction of elevation of intraocular pressure (TOP) by repeated laser photocoagulation of the trabecular meshwork. Imaging sessions were repeated to monitor the optic nerve head (ONH) and retinal structural changes. A single dose of 0.5% Timolol or a single dose of 2 mg/mL Edonentan was topically administered to three non-human primates that have laser-induced glaucoma in their right eyes (OD) with 1-week wash-out in a randomized order.

ET-1 induced vasospasm = assay: Rabbit ET-1 induced vasospasm model, retinal blood flow (OCT-A, FA); assay type: in vivo, rabbit (Oryctolagus cuniculus)
Method: Adult, male Dutch-belted rabbits were given a 20 μl intravitreal injection (IVT) of 0.5 μg of ET-1 followed by a 20 μl intravitreal injection of 10-100 μg Edonentan given 30 min after the ET-1 administration. IOP, optical coherence tomography—angiography (OCT-A), and fluorescein angiograms (FA) were performed at pre-specified time points (30, 45, 60, and 75 min) following ET-1 and Edonentan administration to assess retinal blood flow changes induced by ET-1+/−Edonentan. […] To evaluate the effect of retinal blood flow following intravitreally administered endothelin-1 (ET-1) followed by the antagonist Edonentan in the rabbit, rabbits (Oryctolagus cuniculus) were given a 20 μL intravitreal injection of ET-1 in the left eye followed by a 20 μL intravitreal injection of Edonentan at 2 (or 3) different doses (e.g. 0.1 μg, 0.5 μg, 2.5 μg). The pulse ox, tonometry, optical coherence tomography angiography (OCTA), fluorescein angiography (FA) and retinal leakage scoring were performed for evaluation.

Cc1onc(NS(=O)(=O)c2ccccc2-c2ccc(-c3ncco3)cc2CN(C)C(=O)CC(C)(C)C)c1C [Edonentan, N-[[2′-[[(4,5-dimethyl-3-isoxazolyl)amino]sulfonyl]-4-(2-oxazolyl)[1,1′-biphenyl]-2-yl]methyl]-N,3,3-trimethylbutanamide]
RGC function (PERG) (elevated IOP rat eye): maintained RGC function | RGC loss (RGC counts, retinal flat mounts) (elevated IOP rat eye): prevented RGC loss | Permeability (rating) (Permeability (PAMPA)): Mid-High | Solubility in Ethyl Acetate (rating) ([1]; ethyl acetate): Good | solubility ([1]; ethyl acetate, organic solvent or mixture, read-out: Solubility in Ethyl Acetate): > 8900 µg/mL and > 16800 µM | solubility ([1]; pH 2, simulated gastric fluid, read-out: Solubility at pH 2): < 0.54 µg/mL and < 1 µM | Solubility at pH 7 ([1]; pH 7, amorphous form): 607 μM | IOP reduction from pre-dose to post-dose ([2]; Non-human Primate 1, contralateral healthy eye, 120 minutes): about 10% | IOP reduction from pre-dose to post-dose ([2]; Non-human Primate 1, experimental glaucoma eye, 120 minutes): about 60% | IOP reduction from pre-dose to post-dose ([2]; Non-human Primate 2, contralateral healthy eye, 15 minutes): about 20% | IOP reduction from pre-dose to post-dose ([2]; Non-human Primate 2, contralateral healthy eye, 120 minutes): about 0% | IOP reduction from pre-dose to post-dose ([2]; Non-human Primate 2, experimental glaucoma eye, 15 minutes): about 50% | IOP reduction from pre-dose to post-dose ([2]; Non-human Primate 2, experimental glaucoma eye, 120 minutes): about 30% | IOP reduction from pre-dose to post-dose ([2]; Non-human Primate 3, contralateral healthy eye, 15 minutes): about 10% | IOP reduction from pre-dose to post-dose ([2]; Non-human Primate 3, contralateral healthy eye, 120 minutes): about 40% | IOP reduction from pre-dose to post-dose ([2]; Non-human Primate 3, experimental glaucoma eye, 15 minutes): about 40% | IOP reduction from pre-dose to post-dose ([2]; Non-human Primate 3, experimental glaucoma eye, 120 minutes): about 40% | Fluorescein dye velocity as an index of retinal blood flow, dose dependence (ET-1 induced vasospasm; 0.1 μg ET-1 and 0.1, 0.5, 2.5 or 10 μg Edonentan IVT (FIG. 8A, 8B)): dose-response | Effect of ET-1 (retinal vasoconstriction), fluorescein angiography (ET-1 induced vasospasm; 0.5 μg ET-1 IVT, then 10 μg Edonentan IVT, within 90 min (60 min after Edonentan)): reversed | Fluorescein dye velocity as an index of retinal blood flow (ET-1 induced vasospasm; healthy rabbits, 0.5 μg ET-1 and 10 μg antagonist IVT (FIG. 3)): improved to control levels
